Data published in US8759535B2, “Substituted fused imidazole derivatives, pharmaceutical compositions, and methods of use thereof” (High Point Pharmaceuticals, LLC, priority 2010, dated 2014).
Structures can show the parent of a compound that is named as a salt.

These compounds were tested on HMOX1 (assay: HMOX1 Protein Assay (immunostaining of HO-1 in NHLF cells, GE InCell 1000)). Conditions: Homo sapiens, fold change above DMSO treated cells, 3 μM compound (asterisk), 16 h.
Assay type: cell-based
Outline: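 NHLF cells seeded overnight in FGM-2, then exposed to compound or DMSO vehicle for 16 h, fixed, and immunostained for HO-1 with Hoechst nuclear counterstain; imaged on InCell 1000. Values are fold change over DMSO-treated cells, generally at 5 μM (0.8% DMSO), with asterisked entries at 3 μM.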
In the case of `CO[C@H]1CCCN(C(=O)CNC(=O)c2ccc3c(c2)nc(Nc2nc4ccc(Cl)cc4s2)n3C)C1` [Example 444, 2-(6-Chloro-benzothiazol-2-ylamino)-1-methyl-1H-benzoimidazole-5-carboxylic acid [2-((S)-3-methoxy-piperidin-1-yl)-2-oxo-ethyl]-amide], the fold induction at 3 µM is reported as 32.
`CO[C@H]1CCCN(C(=O)CNC(=O)c2ccc3c(c2)nc(Nc2nc4ccc(C(F)(F)F)cc4s2)n3C)C1` [Example 445, 1-Methyl-2-(6-trifluoromethyl-benzothiazol-2-ylamino)-1H-benzoimidazole-5-carboxylic acid [2-((S)-3-methoxy-piperidin-1-yl)-2-oxo-ethyl]-amide] gave a fold induction at 3 µM of 36.4.
Work on `CO[C@@H]1CCCN(C(=O)CNC(=O)c2ccc3c(c2)nc(Nc2nc4ccc(C(F)(F)F)cc4s2)n3C)C1` [Example 446, 1-Methyl-2-(6-trifluoromethyl-benzothiazol-2-ylamino)-1H-benzoimidazole-5-carboxylic acid [2-((R)-3-methoxy-piperidin-1-yl)-2-oxo-ethyl]-amide] yielded a fold induction at 3 µM of 31.3.
Work on `Cn1c(Nc2nc3ccc(OC(F)(F)F)cc3s2)nc2cc(C(=O)NCC(=O)N3CCC(C#N)CC3)ccc21` [Example 450, 1-Methyl-2-(6-trifluoromethoxy-benzothiazol-2-ylamino)-1H-benzoimidazole-5-carboxylic acid [2-(4-cyano-piperidin-1-yl)-2-oxo-ethyl]-amide] yielded a fold induction at 3 µM of 51.
`C[C@H](NC(=O)c1ccc2c(c1)nc(Nc1nc3ccc(Cl)cc3s1)n2C)C(=O)N(C)C` [Example 462, 2-(6-Chloro-benzothiazol-2-ylamino)-1-methyl-1H-benzoimidazole-5-carboxylic acid ((S)-1-dimethylcarbamoyl-ethyl)-amide] was tested, and the fold induction at 3 µM was 20.
For `C[C@H](NC(=O)c1ccc2c(c1)nc(Nc1nc3ccc(C(F)(F)F)cc3s1)n2C)C(=O)N(C)C` [Example 463, 1-Methyl-2-(6-trifluoromethyl-benzothiazol-2-ylamino)-1H-benzoimidazole-5-carboxylic acid ((S)-1-dimethylcarbamoyl-ethyl)-amide], the fold induction at 3 µM was 26.7.
For `C[C@H](NC(=O)c1ccc2c(c1)nc(Nc1nc3ccc(Cl)cc3s1)n2C)C(=O)N1CCN(C)CC1` [Example 464, 2-(6-Chloro-benzothiazol-2-ylamino)-1-methyl-1H-benzoimidazole-5-carboxylic acid [(S)-1-methyl-2-(4-methyl-piperazin-1-yl)-2-oxo-ethyl]-amide], the fold induction at 3 µM was 27.2.
Work on `C[C@H](NC(=O)c1ccc2c(c1)nc(Nc1nc3ccc(Cl)cc3s1)n2C)C(=O)N1CCOCC1` [Example 465, 2-(6-Chloro-benzothiazol-2-ylamino)-1-methyl-1H-benzoimidazole-5-carboxylic acid ((S)-1-methyl-2-morpholin-4-yl-2-oxo-ethyl)-amide] yielded a fold induction at 3 µM of 20.4.
`C[C@H](NC(=O)c1ccc2c(c1)nc(Nc1nc3ccc(C(F)(F)F)cc3s1)n2C)C(=O)N1CCOCC1` [Example 466, 1-Methyl-2-(6-trifluoromethyl-benzothiazol-2-ylamino)-1H-benzoimidazole-5-carboxylic acid ((S)-1-methyl-2-morpholin-4-yl-2-oxo-ethyl)-amide] showed a fold induction at 3 µM of 22.4.
Compound `C[C@@H](NC(=O)c1ccc2c(c1)nc(Nc1nc3ccc(Cl)cc3s1)n2C)C(=O)N(C)C` [Example 467, 2-(6-Chloro-benzothiazol-2-ylamino)-1-methyl-1H-benzoimidazole-5-carboxylic acid ((R)-1-dimethylcarbamoyl-ethyl)-amide] has a fold induction at 3 µM of 22.3.

Same assay, conditions: Homo sapiens, fold change above DMSO treated cells, 5 μM compound, 16 h
`Cn1c(Nc2nc3ccc(OC(F)(F)F)cc3s2)nc2cc(C(=O)NCC(=O)N3CCC(CO)CC3)ccc21` [Example 441, 1-Methyl-2-(6-trifluoromethoxy-benzothiazol-2-ylamino)-1H-benzoimidazole-5-carboxylic acid [2-(4-hydroxymethyl-piperidin-1-yl)-2-oxo-ethyl]-amide] showed a fold induction at 5 µM of 73.6.
`Cn1c(Nc2nc3ccc(Cl)cc3s2)nc2cc(C(=O)NCC(=O)N3CCC(CO)CC3)ccc21` [Example 442, 2-(6-Chloro-benzothiazol-2-ylamino)-1-methyl-1H-benzoimidazole-5-carboxylic acid [2-(4-hydroxymethyl-piperidin-1-yl)-2-oxo-ethyl]-amide] showed a fold induction at 5 µM of 34.9.
In the case of `COCCn1c(Nc2nc3ccc(Cl)cc3s2)nc2cc(C(=O)NCC(=O)N3CCC(CO)CC3)ccc21` [Example 443, 2-(6-Chloro-benzothiazol-2-ylamino)-1-(2-methoxy-ethyl)-1H-benzoimidazole-5-carboxylic acid [2-(4-hydroxymethyl-piperidin-1-yl)-2-oxo-ethyl]-amide], the fold induction at 5 µM is reported as 39.8.
For `COCC1CCN(C(=O)CNC(=O)c2ccc3c(c2)nc(Nc2nc4ccc(OC(F)(F)F)cc4s2)n3C)CC1` [Example 447, 1-Methyl-2-(6-trifluoromethoxy-benzothiazol-2-ylamino)-1H-benzoimidazole-5-carboxylic acid [2-(4-methoxymethyl-piperidin-1-yl)-2-oxo-ethyl]-amide], the fold induction at 5 µM was 58.4.
`Cn1c(Nc2nc3ccc(OC(F)(F)F)cc3s2)nc2cc(C(=O)NCC(=O)N3CCC(CF)CC3)ccc21` [Example 448, 1-Methyl-2-(6-trifluoromethoxy-benzothiazol-2-ylamino)-1H-benzoimidazole-5-carboxylic acid [2-(4-fluoromethyl-piperidin-1-yl)-2-oxo-ethyl]-amide] was tested, and the fold induction at 5 µM was 36.7.
`Cn1c(Nc2nc3ccc(OC(F)(F)F)cc3s2)nc2cc(C(=O)NCC(=O)N3CCC(C(F)(F)F)CC3)ccc21` [Example 449, 1-Methyl-2-(6-trifluoromethoxy-benzothiazol-2-ylamino)-1H-benzoimidazole-5-carboxylic acid [2-oxo-2-(4-trifluoromethyl-piperidin-1-yl)-ethyl]-amide] showed a fold induction at 5 µM of 23.
`Cn1c(Nc2nc3ccc(OC(F)(F)F)cc3s2)nc2cc(C(=O)NCC(=O)N3CCC(C(N)=O)CC3)ccc21` [Example 451, 1-Methyl-2-(6-trifluoromethoxy-benzothiazol-2-ylamino)-1H-benzoimidazole-5-carboxylic acid [2-(4-carbamoyl-piperidin-1-yl)-2-oxo-ethyl]-amide] was tested, and the fold induction at 5 µM was 51.3.
In the case of `Cn1c(Nc2nc3ccc(OC(F)(F)F)cc3s2)nc2cc(C(=O)NCC(=O)N3CCC(Oc4ncccn4)CC3)ccc21` [Example 452, 1-Methyl-2-(6-trifluoromethoxy-benzothiazol-2-ylamino)-1H-benzoimidazole-5-carboxylic acid {2-oxo-2-[4-(pyrimidin-2-yloxy)-piperidin-1-yl]-ethyl}-amide], the fold induction at 5 µM is reported as 71.7.
Compound `CNC1CCN(C(=O)CNC(=O)c2ccc3c(c2)nc(Nc2nc4ccc(OC(F)(F)F)cc4s2)n3C)CC1` [Example 453, 1-Methyl-2-(6-trifluoromethoxy-benzothiazol-2-ylamino)-1H-benzoimidazole-5-carboxylic acid [2-(4-methylamino-piperidin-1-yl)-2-oxo-ethyl]-amide hydrochloride] has a fold induction at 5 µM of 81.1.
For `CNC1CCN(C(=O)CNC(=O)c2ccc3c(c2)nc(Nc2nc4ccc(Cl)cc4s2)n3C)CC1` [Example 454, 2-(6-Chloro-benzothiazol-2-ylamino-1-methyl-1H-benzoimidazole-5-carboxylic acid [2-(4-methylamino-piperidin-1-yl)-2-oxo-ethyl]-amide hydrochloride], the fold induction at 5 µM was 62.2.
Compound `CN(C)C1CCN(C(=O)CNC(=O)c2ccc3c(c2)nc(Nc2nc4ccc(OC(F)(F)F)cc4s2)n3C)CC1` [Example 455, 1-Methyl-2-(6-trifluoromethoxy-benzothiazol-2-ylamino)-1H-benzoimidazole-5-carboxylic acid [2-(4-dimethylamino-piperidin-1-yl)-2-oxo-ethyl]-amide] has a fold induction at 5 µM of 80.4.
For `CN(C)C1CCN(C(=O)CNC(=O)c2ccc3c(c2)nc(Nc2nc4ccc(Cl)cc4s2)n3C)CC1` [Example 456, 2-(6-Chloro-benzothiazol-2-ylamino)-1-methyl-1H-benzoimidazole-5-carboxylic acid [2-(4-dimethylamino-piperidin-1-yl)-2-oxo-ethyl]-amide], the fold induction at 5 µM was 67.3.
With `CNCC1CCN(C(=O)CNC(=O)c2ccc3c(c2)nc(Nc2nc4ccc(Cl)cc4s2)n3C)CC1` [Example 457, 2-(6-Chloro-benzothiazol-2-ylamino)-1-methyl-1H-benzoimidazole-5-carboxylic acid [2-(4-methylaminomethyl-piperidin-1-yl)-2-oxo-ethyl]-amide hydrochloride] the fold induction at 5 µM was 39.9.
Work on `CN(C)CC1CCN(C(=O)CNC(=O)c2ccc3c(c2)nc(Nc2nc4ccc(OC(F)(F)F)cc4s2)n3C)CC1` [Example 458, 1-Methyl-2-(6-trifluoromethoxy-benzothiazol-2-ylamino)-1H-benzoimidazole-5-carboxylic acid [2-(4-dimethylaminomethyl-piperidin-1-yl)-2-oxo-ethyl]-amide] yielded a fold induction at 5 µM of 68.5.
Compound `CN(C)CC1CCN(C(=O)CNC(=O)c2ccc3c(c2)nc(Nc2nc4ccc(Cl)cc4s2)n3C)CC1` [Example 459, 2-(6-Chloro-benzothiazol-2-ylamino)-1-methyl-1H-benzoimidazole-5-carboxylic acid [2-(4-dimethylaminomethyl-piperidin-1-yl)-2-oxo-ethyl]-amide] has a fold induction at 5 µM of 42.
`CNCC1CCCN(C(=O)CNC(=O)c2ccc3c(c2)nc(Nc2nc4ccc(Cl)cc4s2)n3C)C1` (stereo not drawn) [Example 460, 2-(6-Chloro-benzothiazol-2-ylamino)-1-methyl-1H-benzoimidazole-5-carboxylic acid [2-(3-methylaminomethyl-piperidin-1-yl)-2-oxo-ethyl]-amid hydrochloride] gave a fold induction at 5 µM of 27.5.
`CN(C)CC1CCCN(C(=O)CNC(=O)c2ccc3c(c2)nc(Nc2nc4ccc(Cl)cc4s2)n3C)C1` (stereo not drawn) [Example 461, 2-(6-Chloro-benzothiazol-2-ylamino)-1-methyl-1H-benzoimidazole-5-carboxylic acid [2-(3-dimethylaminomethyl-piperidin-1-yl)-2-oxo-ethyl]-amide] was tested, and the fold induction at 5 µM was 27.1.
